The text below walks through data of EPA's ToxValDB 9.5.

For orientation: NOAEL means the highest dose or exposure tested at which no adverse effect was seen. By LOAEL is commonly meant the lowest tested level that showed an adverse finding.

Data set [1] relates to Rattus norvegicus.
The test system of data set [2] is Rattus norvegicus. As to conditions: oral.
[3] abbreviates: subchronic, duration: 13 weeks, oral, diet, F, Crl:CD(SD) BR, Blood: Hematocrit (HCT) + Blood: Mean Corpuscular Volume (MCV) + Brain: Brain Weight, Absolute + Kidney: Urea Nitrogen + Liver: Cholesterol….
Where [4] appears, read: subchronic, duration: 13 weeks, oral, diet, F, Crl:CD(SD) BR, Blood: Red Blood Cell (RBC) + Kidney: Kidney Weight, Relative + Liver: Hepatocellular Hypertrophy, Centrilobular + Liver: Liver Weight, ….
The mark [5] stands for this setting: subchronic, duration: 13 weeks, oral, diet, F, Sprague-Dawley, Endocrine: Adrenal: Adrenal Gland Weight, Absolute + Endocrine: Adrenal: Adrenal Gland Weight, Relative to Brain + Hepatic: Liver: Liver ….
The mark [6] stands for this setting: subchronic, duration: 13 weeks, oral, diet, F, Sprague-Dawley, Hepatic: Liver: Total Bilirubin (TBILI) + Immune: Blood: Monocytes %.
Setting [7] is: subchronic, duration: 13 weeks, oral, diet, M, Crl:CD(SD) BR, Blood: Calcium (CA), Blood + Blood: Globulin (G), Blood + Brain: Brain Weight, Relative + Kidney: Kidney Weight, Relative + Liver: ….
The mark [8] stands for this setting: subchronic, duration: 13 weeks, oral, diet, M, Crl:CD(SD) BR, Blood: Glucose (GLU), Blood + Blood: Hematocrit (HCT) + Kidney: Kidney Weight, Absolute + Kidney: Kidney Weight, Relative to Brain + Kidney….
[9] abbreviates: subchronic, duration: 13 weeks, oral, diet, M, Sprague-Dawley, Cardiovascular: Heart: Heart, Degeneration/Necrosis + Endocrine: Adrenal: Adrenal Gland Weight, Absolute + Endocrine: Thyroid/Parathyroid: ….
Where [10] appears, read: subchronic, duration: 13 weeks, oral, diet, M, Sprague-Dawley, Endocrine: Adrenal: Adrenal Gland Weight, Relative + Endocrine: Adrenal: Adrenal Gland Weight, Relative to Brain + Endocrine: Adrenal: ….
Setting [11] is: subchronic, duration: 13 weeks, oral, diet, M, Sprague-Dawley, Immune: Blood: Basophils.
Where [12] appears, read: short-term, duration: 28 days, gavage, F, Sprague-Dawley, Water Consumption: increase + Urinalysis: Volume increase, Osmolarity decrease, Bil increase + Hematology: RBC decrease300 Hgb decrease300 ….
[13] abbreviates: short-term, duration: 28 days, gavage, M, Sprague-Dawley, Water Consumption: increase + Urinalysis: Volume increase, Osmolarity decrease, Bil increase + Hematology: RBC decrease300 Hgb decrease300 ….

Each structure is given as a SMILES string. “And” between values parts separate entries of the source, which are not always exact repeats. Identical values can stand only once.

Regarding `CN(CCO)S(=O)(=O)C(F)(F)C(F)(F)C(F)(F)C(F)(F)C(F)(F)C(F)(F)C(F)(F)C(F)(F)F` [N-Methyl-N-(2-hydroxyethyl)perfluorooctanesulfonamide], the NEL with Rattus norvegicus [1] (chronic, duration: 14 weeks, oral, diet, M/F, Crl:CD(SD) BR, Eye: Ophthalmology, Unspecified + Whole Body: Clinical Observations) is 7.8 mg/kg-day and 7.27 mg/kg-day; with Rattus norvegicus [1] (subchronic, duration: 13 weeks, oral, diet, F, Crl:CD(SD) BR, Adrenal: Adrenal Cortex Histopathology + Adrenal: Adrenal Gland Weight, Absolute + Adrenal: Adrenal Gland Weight, Relative + Adrenal: …), 9.6 mg/kg-day and 7.7 mg/kg-day; in the data set on Rattus norvegicus [1] (setting [3]) it was 2.88 mg/kg-day and 2.59 mg/kg-day; with Rattus norvegicus [1] (setting [4]), 0.288 mg/kg-day and 0.24 mg/kg-day; in the data set on Rattus norvegicus [1] (subchronic, duration: 13 weeks, oral, diet, M, Crl:CD(SD) BR, Adrenal: Adrenal Cortex Histopathology + Adrenal: Adrenal Gland Weight, Absolute + Adrenal: Adrenal Gland Weight, Relative + Adrenal: …), 6.84 mg/kg-day and 9.6 mg/kg-day; in the data set on Rattus norvegicus [1] (setting [7]) it was 0.203 mg/kg-day and 0.288 mg/kg-day. For the same compound, in the data set on Rattus norvegicus [1] (setting [8]), the NEL was 2.04 mg/kg-day and 2.88 mg/kg-day. In addition, the LEL with Rattus norvegicus [1] (setting [3]) was 9.6 mg/kg-day and 7.7 mg/kg-day; with Rattus norvegicus [1] (setting [4]), 2.88 mg/kg-day and 2.59 mg/kg-day; in the data set with Rattus norvegicus [1] (subchronic, duration: 13 weeks, oral, diet, F, Crl:CD(SD) BR, Brain: Brain Weight, Relative + Whole Body: Body Weight Change), 0.288 mg/kg-day and 0.24 mg/kg-day; in the data set with Rattus norvegicus [1] (setting [7]), 2.04 mg/kg-day and 2.88 mg/kg-day; in the data set on Rattus norvegicus [1] (setting [8]), 6.84 mg/kg-day and 9.6 mg/kg-day; with Rattus norvegicus [1] (subchronic, duration: 13 weeks, oral, diet, M, Crl:CD(SD) BR, Whole Body: Body Weight Change) it was 0.203 mg/kg-day and 0.288 mg/kg-day. Moreover, the NOAEL is 0.203 mg/kg-day in the data set with Rattus norvegicus [1] (subchronic, duration: 13 weeks, oral, diet, F, Sprague-Dawley, Cardiovascular: Aorta: Aorta Histopathology + Cardiovascular: Heart: Heart, Degeneration/Necrosis + Endocrine: Adrenal: Adrenal Cortex …); 2.04 mg/kg-day in the data set with Rattus norvegicus [1] (setting [5]); 6.84 mg/kg-day with Rattus norvegicus [1] (subchronic, duration: 13 weeks, oral, diet, F, Sprague-Dawley, Endocrine: Adrenal: Adrenal Medulla Histopathology + Endocrine: Thyroid/Parathyroid: Thyroid/Parathyroid Gland Weight, Relative to Brain + …); 1.92 mg/kg-day in the data set on Rattus norvegicus [1] (setting [6]); 6.84 mg/kg-day in the data set on Rattus norvegicus [1] (subchronic, duration: 13 weeks, oral, diet, M, Sprague-Dawley, Cardiovascular: Aorta: Aorta Histopathology + Endocrine: Adrenal: Adrenal Cortex Histopathology + Endocrine: Pituitary: Pituitary Gland …); 2.04 mg/kg-day with Rattus norvegicus [1] (setting [9]). Also, the NOAEL in the data set with Rattus norvegicus [1] (setting [10]) came to 0.203 mg/kg-day; with Rattus norvegicus [1] (setting [11]), 1.92 mg/kg-day. In addition, the LOAEL is 6.84 mg/kg-day with Rattus norvegicus [1] (setting [5]); 0.203 mg/kg-day with Rattus norvegicus [1] (subchronic, duration: 13 weeks, oral, diet, F, Sprague-Dawley, General Toxicity: Whole Body: Body Weight Change + General Toxicity: Whole Body: Body Weight, Absolute + Hematologic: Blood: Inorganic …); 19.2 mg/kg-day in the data set on Rattus norvegicus [1] (setting [6]); 0.203 mg/kg-day with Rattus norvegicus [1] (subchronic, duration: 13 weeks, oral, diet, M, Sprague-Dawley, Cardiovascular: Aorta: Aorta Histopathology + Cardiovascular: Heart: Heart, Degeneration/Necrosis + Endocrine: Adrenal: Adrenal Cortex …); 6.84 mg/kg-day in the data set with Rattus norvegicus [1] (setting [9]); 2.04 mg/kg-day in the data set on Rattus norvegicus [1] (setting [10]). The LOAEL in the data set on Rattus norvegicus [1] (subchronic, duration: 13 weeks, oral, diet, M, Sprague-Dawley, Hematologic: Blood: Hematocrit (HCT) + Hematologic: Blood: Mean Corpuscular Hemoglobin Concentration (MCHC) + Hepatic: Liver: Aspartate …) worked out at 0.203 mg/kg-day; in the data set with Rattus norvegicus [1] (setting [11]), 19.2 mg/kg-day.

Regarding `FC(F)(F)N1C(F)(F)C(F)(F)OC(F)(F)C1(F)F` [Perfluoro(N-methylmorpholine)], the NEL with Rattus norvegicus [1] (subchronic, duration: 13 weeks, inhalation, M/F, Sprague-Dawley, Blood: Hematology, Unspecified + Eye: Ophthalmology, Unspecified + Multi-organ: Clinical Chemistry, Unspecified + Multi-organ: …) turned out to be 607000 mg/m3; with Rattus norvegicus [1] (subchronic, duration: 30 days, oral, gavage, M/F, Crl:CD(SD) BR, Blood: Hematology, Unspecified + Blood: Red Cell Morphology + Multi-organ: Clinical Chemistry, Unspecified + Multi-organ: Histopathology, …), 2000 mg/kg-day.

`O=[N+]([O-])/N=C1\NCCN1Cc1ccc(Cl)nc1` [Imidacloprid]: the NOEL with Rattus norvegicus [2] (chronic, duration: 96 days, gavage, M/F, Body Weight Changes: Weight gain decrease + Hematology: WBC decrease, QT increase + Blood Chemistry: BUN increase, CL increase, IP decrease…) was less than 150 ppm.

Consider `O=C(O)CCCN1CCC(O[C@@H](c2ccc(Cl)cc2)c2ccccn2)CC1.O=S(=O)(O)c1ccccc1` [Bepotastine besylate], for which the NOAEL with Rattus norvegicus [2] (short-term, duration: 28 days, gavage, M/F, CD, Clinical Observation: Mydriasis Salivation Soiled perineal region + Body Weight Changes: decrease + Food Consumption: decrease + Urinalysis…) was found to be 100 mg/kg-day.

Regarding `Nc1ccc(Nc2ccccc2)cc1` [N-Phenyl-1,4-benzenediamine], the NOAEL in the data set on Rattus norvegicus [2] (subchronic, duration: 90 days, diet, M, Wistar, Body Weight Changes: Body weight gain decrease + Food Consumption: decrease + Hematology: RBC decrease, HGB decrease, HCT decrease, MCV …) was 96 mg/kg-day.

Regarding `COC(CCl)OC` [Ethane, 2-chloro-1,1-dimethoxy-], the NOEL in the data set on Rattus norvegicus [2] (short-term, duration: 28 days, gavage, M/F, Blood Chemistry: GPT increase, ALP increase, T-Bil increase, IP decrease + Organ Weight: Liver increase, Spleen decrease, Kidney increase, …) stood at 15 mg/kg-day.

With `CC(C)(C1CCC(O)CC1)C1CCC(O)CC1` (centres undefined) [4,4'-Propane-2,2-diyldicyclohexanol], the NOEL with Rattus norvegicus [2] (subchronic, gavage, M, Sprague-Dawley, Hematology: APTT increase, PT increase + Blood Chemistry: TG increase, TP increase, Ca increasegamma-GTP increase, Glu decrease, Cho …) amounted to 20 mg/kg-day.

In the case of `CCCC[B-](c1ccccc1)(c1ccccc1)c1ccccc1.CCCC[N+](CCCC)(CCCC)CCCC` [Tetrabutylammonium butyltriphenylborate], the NOEL in the data set with Rattus norvegicus [2] (short-term, duration: 28 days, gavage, M/F, Blood Chemistry: GPT increase, CHE decrease + Histopathology: Thymus-Proliferation, histiocyte Thymus-Atrophy Adrenal-Decreased lipoid) is less than 3 mg/kg-day.

As to `C(COCC1CO1)OCC1CO1` (centres undefined) [Ethylene glycol diglycidyl ether], the NOEL in the data set with Rattus norvegicus [2] (subchronic, duration: 42 days, gavage, M, CD(SD), Clinical Observation: Salivation + Body Weight Changes: decrease + Food Consumption: decrease + Blood Chemistry: TG decrease + …) came to 12.5 mg/kg-day.

In the case of `O=C(O)C(Cl)(Cl)Cl` [Trichloroacetic acid], the NOEL in the data set on Rattus norvegicus [2] (short-term, duration: 28 days, gavage, M/F, Clinical Observation: Salivation Soft feces Locomotor activity decrease + Urinalysis: Ketone body increase + Hematology: WBC increase, Trend…) was 40 mg/kg-day.

`OCC1CO1` (centres undefined) [Glycidol]: the NOEL with Rattus norvegicus [2] (subchronic, duration: 13 weeks, gavage, M/F, Fischer 344, Deaths + Body Weight Changes: decrease + Absolute Organ Weight: -- + Histopathology: Brain /cerebellum-Necrosis Brain-Demyelination Kidney-…) was less than 25 mg/kg-day.

On to `CCOP(OCC)OCC` [Triethyl phosphite], for which the NOAEL with Rattus norvegicus [2] (subchronic, duration: 32 days, gavage, M/F, Deaths + Clinical Observation: Impaired general condition Emaciation Unkempt fur + Body Weight Changes: Weight gain decrease + Food …) was found to be 150 mg/kg-day.

`Nc1ccccc1-c1ccccc1` [2-Biphenylamine]: the LOEL with Rattus norvegicus [2] (setting [12]) amounted to 30 mg/kg-day; with Rattus norvegicus [2] (setting [13]), 100 mg/kg-day. The NOEL was less than 30 mg/kg-day with Rattus norvegicus [2] (setting [12]) and 30 mg/kg-day in the data set with Rattus norvegicus [2] (setting [13]).

Take `CO[Si](OC)(OC)c1ccccc1` [Trimethoxyphenylsilane]: the NOAEL with Rattus norvegicus [2] (short-term, duration: 28 days, gavage, M, Han Wistar, Body Weight Changes: decrease + Food Consumption: decrease + Blood Chemistry: BUN increase, BA increase, T-Cho increase + Absolute Organ …) is less than 100 mg/kg-day.

In the case of `O=[N+]([O-])c1ccc(Cl)c(Cl)c1` [3,4-Dichloronitrobenzene], the NOEL with Rattus norvegicus [2] (subchronic, gavage, M, Sprague-Dawley, Hematology: RBC decrease, Hct decrease, MCV increase, MCH increase, Hgb decrease, MCHC decrease, Ret increase + Blood Chemistry: T-Bil: …) was less than 4 mg/kg-day.

In the case of `Nc1c(S(=O)(=O)O)cc(Br)c2c1C(=O)c1ccccc1C2=O`, in the data set with Rattus norvegicus [2] (short-term, duration: 28 days, gavage, M/F, Deaths + Clinical Observation: Polyuria + Body Weight Changes: Body weight gain decrease + Water Consumption: increase + Urinalysis: Urine …), the NOEL came out at 50 mg/kg-day.

As to `CCCN(CCC)S(=O)(=O)c1ccc(C(=O)O)cc1` [Probenecid], the NOEL in the data set on Rattus norvegicus [2] (subchronic, duration: 13 weeks, gavage, M/F, Fischer 344, Clinical Observation: Yellow-brown staining of the perineum + Body Weight Changes: decrease + Absolute Organ Weight: Liver increase, Right …) was less than 50 mg/kg-day.
